Reference: US11691972B2, “Compounds for targeted degradation of BRD9” (C4 Therapeutics, Inc., priority 2020, dated 2023)
Where two headings read alike, the source gives them in different places.

Columns and labels:
IV PK, rat = assay type: in vivo; conditions: for IV PK AUC(0-last) / IV PK Cmax: dose-normalised; for clearance / Vd / half-life: in vivo; for clearance: read-out: IV PK CL; for Vd: read-out: IV PK Vdss; for half-life: read-out: IV PK t1/2 (converted)
PO PK, rat = assay type: in vivo; conditions: for PO PK AUC(0-last) / PO PK Cmax: dose-normalised; for bioavailability / half-life: in vivo; for bioavailability: read-out: PO PK F%; for half-life: read-out: PO PK t1/2 (converted)
[1] = Hepatocyte stability, dog; assay type: in vitro ADME; conditions: dog hepatocytes; read-out: Hepatocyte stability, Clint scaled ws
BRD9 = target: T1, BRD9 (Homo sapiens, UniProt Q9H8M2); experiment: HiBiT BRD9 degradation assay in 293T.166 (BRD9-HiBiT) cells; assay type: cell-based; design: endogenously expressing BRD9 with HiBiT fusion tag via CRISPR; host or cells: 293T.166 (BRD9-HiBiT), also expressing LgBiT ectopically
T1 sequence (Q9H8M2 1-597): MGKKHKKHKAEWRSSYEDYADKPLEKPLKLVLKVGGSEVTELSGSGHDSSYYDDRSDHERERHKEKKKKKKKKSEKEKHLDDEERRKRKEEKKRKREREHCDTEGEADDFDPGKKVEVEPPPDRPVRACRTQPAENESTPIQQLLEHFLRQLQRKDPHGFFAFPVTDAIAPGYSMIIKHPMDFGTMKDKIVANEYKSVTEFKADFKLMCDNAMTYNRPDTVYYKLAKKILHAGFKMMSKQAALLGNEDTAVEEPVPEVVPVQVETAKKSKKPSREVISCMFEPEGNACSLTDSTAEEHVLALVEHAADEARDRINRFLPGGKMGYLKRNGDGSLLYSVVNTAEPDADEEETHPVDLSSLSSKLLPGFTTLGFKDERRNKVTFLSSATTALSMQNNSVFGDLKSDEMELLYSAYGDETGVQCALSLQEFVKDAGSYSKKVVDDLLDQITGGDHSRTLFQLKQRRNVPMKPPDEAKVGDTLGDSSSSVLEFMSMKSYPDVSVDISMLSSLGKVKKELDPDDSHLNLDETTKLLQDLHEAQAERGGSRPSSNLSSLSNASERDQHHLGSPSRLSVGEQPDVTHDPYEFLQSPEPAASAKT
Summary of the method: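 Luminescence from the Nano-Glo HiBiT lytic reagent quantified BRD9 loss after compounds (top 10 μM, half-log, 11 points, duplicates) were incubated 2 h at 37° C. with 10,000 293T.166 BRD9-HiBiT/LgBiT cells per well, with controls lacking compound or lacking reagent.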

hERG = hERG (Homo sapiens, UniProt Q12809); experiment: hERG
Plasma stability, human = assay type: in vitro ADME
[2] = Hepatocyte stability, mouse; assay type: in vitro ADME; conditions: mouse hepatocytes; read-out: Hepatocyte stability, Clint scaled ws
PO PK, mouse = assay type: in vivo; conditions: for PO PK AUC(0-last) / PO PK Cmax: dose-normalised; for bioavailability / half-life: in vivo; for bioavailability: read-out: PO PK F%; for half-life: read-out: PO PK t1/2 (converted)
PPB, human = assay type: in vitro ADME; conditions: plasma
PPB, dog = assay type: in vitro ADME; conditions: plasma
Yamato-SS cells = experiment: Confluence (growth) over time in Yamato-SS cells; assay type: cell-based, human
[3] = test system: Yamato-SS xenograft model; experiment: Tumor volume in the Yamato-SS xenograft (CDX) model; assay type: in vivo, mouse
PPB, mouse = assay type: in vitro ADME; conditions: plasma
Plasma stability, dog = assay type: in vitro ADME
Yamato-SS = experiment: Synovial sarcoma xenograft model Yamato-SS, tumor volume; assay type: in vivo; conditions: BALB/c nude mice
Description: (§1) Yamato-SS cells were maintained in vitro until exponential growth phase and inoculated subcutaneously into BALB/c nude mice at the right flank for tumor development. Treatments of Compound 172 were started at the appropriate tumor volume. Mice were treated with 40 mg/kg PO QD of Compound 172 and tumor volumes (x-axis) were measured twice a week using a caliper. The x-axis is time after start of treatment measured in days and the y-axis is tumor volume measured in mm^3.
Yamato-SS cells were maintained in vitro until exponential growth phase and inoculated subcutaneously into BALB/c nude mice at the right flank. Treatments of Compound 172 were started at the appropriate tumor volume. Mice were randomized into groups and treated with 6, 17, or 50 mg/kg PO QD of Compound 172 and tumor volumes (x-axis) were measured twice a week using a caliper. The x-axis is time after start of treatment measured in days and the y-axis is tumor volume measured in mm^3.
as §1, with “176” for “172”, “treated as indicated” for “treated”, “with” for “with 40 mg/kg PO QD of”

[4] = Table 1, 293T.166 cells, 2.0 hours, class symbols, read-out: HiBiT-Degradation 293T.166 BRD9 2.0 hours (DC50)

Chain of hERG (Q12809 whole entry): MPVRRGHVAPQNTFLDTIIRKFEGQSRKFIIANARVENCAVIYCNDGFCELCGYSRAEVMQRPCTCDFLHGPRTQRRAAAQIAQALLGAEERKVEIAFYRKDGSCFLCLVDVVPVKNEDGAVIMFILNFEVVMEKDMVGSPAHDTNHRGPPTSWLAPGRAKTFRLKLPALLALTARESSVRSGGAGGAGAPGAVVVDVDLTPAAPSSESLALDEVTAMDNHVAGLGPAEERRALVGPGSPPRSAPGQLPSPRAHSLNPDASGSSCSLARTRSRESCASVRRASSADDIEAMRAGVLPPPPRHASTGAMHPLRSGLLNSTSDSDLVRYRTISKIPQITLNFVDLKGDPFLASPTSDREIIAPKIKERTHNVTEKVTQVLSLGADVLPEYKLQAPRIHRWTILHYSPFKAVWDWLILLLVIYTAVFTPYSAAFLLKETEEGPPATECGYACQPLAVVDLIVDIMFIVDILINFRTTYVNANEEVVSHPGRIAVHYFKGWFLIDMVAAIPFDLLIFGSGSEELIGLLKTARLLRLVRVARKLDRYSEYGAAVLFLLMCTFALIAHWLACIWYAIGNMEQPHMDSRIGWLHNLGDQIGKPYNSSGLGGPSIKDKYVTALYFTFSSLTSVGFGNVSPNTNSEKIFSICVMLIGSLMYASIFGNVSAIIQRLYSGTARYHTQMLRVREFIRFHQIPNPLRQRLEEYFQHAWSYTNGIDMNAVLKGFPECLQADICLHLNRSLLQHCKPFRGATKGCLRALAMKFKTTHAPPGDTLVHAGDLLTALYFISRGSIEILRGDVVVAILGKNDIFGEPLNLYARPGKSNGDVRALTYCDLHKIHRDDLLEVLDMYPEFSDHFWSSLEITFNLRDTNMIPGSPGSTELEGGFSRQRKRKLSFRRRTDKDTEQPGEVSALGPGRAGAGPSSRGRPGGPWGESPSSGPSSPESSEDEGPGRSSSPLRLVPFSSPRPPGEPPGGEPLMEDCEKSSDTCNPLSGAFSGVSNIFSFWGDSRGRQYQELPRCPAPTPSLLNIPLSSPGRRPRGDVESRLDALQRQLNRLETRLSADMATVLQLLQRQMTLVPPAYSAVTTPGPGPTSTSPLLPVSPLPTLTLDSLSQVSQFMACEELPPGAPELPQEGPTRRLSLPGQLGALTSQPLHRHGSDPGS

SMILES | IV PK AUC(0-last) (IV PK, rat) | IV PK Cmax (IV PK, rat) | clearance (IV PK, rat) [mL/min/kg] | Vd (IV PK, rat) [L/kg] | half-life (IV PK, rat) [h] | PO PK AUC(0-last) (PO PK, rat) | PO PK Cmax (PO PK, rat) | bioavailability (PO PK, rat) [%] | half-life (PO PK, rat) [h] | CLint scaled [1] [mL/min/kg] | DC50 (BRD9; [4]) [µM] | IC50 (hERG) [µM] | Stability (plasma) % remaining @3 hrs (Plasma stability, human) [%] | CLint scaled [2] [mL/min/kg] | PO PK AUC(0-last) (PO PK, mouse) | PO PK Cmax (PO PK, mouse) | bioavailability (PO PK, mouse) [%] | half-life (PO PK, mouse) [h] | fraction unbound (PPB, human) | fraction unbound (PPB, dog) | also measured
COc1cc(-c2cn(C)c(=O)c(C)c2C)cc(OC)c1CN1CCC(N2CCN(c3ccc(NC4CCC(=O)NC4=O)cc3F)CC2)C(F)(F)C1 (centres unmarked) [Compound 172, 3-[4-[4-[1-[[2,6-dimethoxy-4-(1,4,5-trimethyl-6-oxo-3-pyridyl)phenyl]methyl]-3,3-difluoro-4-piperidyl]piperazin-1-yl]-3-fluoro-anilino]piperidine-2,6-dione] | 1230 (h*ng/mL)/(mg/kg) | 517 [ng/mL]/(mg/kg) | 16 | 7.9 | 9.5 | 520 (h*ng/mL)/(mg/kg) | 92 (ng/mL)/(mg/kg) | 49 | 4.3 | 2 | < 0.1 | > 30 | 83.4 | 38 | 5947 (h*ng/mL)/(mg/kg) | 844 (ng/mL)/(mg/kg) | 122 | 3.3 | 0.088 | 0.039 | BRD9 degradation (2 h), Kendo 17 h, percent (BRD9; 2 h): 5%; DC50 (BRD9; 2 h, read-out: BRD9 degradation (2 h), Kendo 17 h, concentration): 0.0034 µM; confluence as a percentage of control over time (Yamato-SS cells; Yamato-SS cells, FIG. 4): growth inhibition; response of tumor volume to various concentrations ([3]; Yamato-SS xenograft model, FIG. 7): dose dependent efficacy; fraction unbound (PPB, mouse): 0.018; Stability (plasma) % remaining @3 hrs (Plasma stability, dog): 80.2%; tumor volume after treatment, Yamato-SS xenograft (Yamato-SS; 40 mg/kg PO QD, FIG. 1): strong effect; tumor volume after treatment, Yamato-SS xenograft, dose response (Yamato-SS; 6, 17, or 50 mg/kg PO QD, FIG. 7): dose dependent efficacy
COc1cc(-c2cn(C)c(=O)c(C)c2C)cc(OC)c1CN1CCC(N2CCN(c3ccc(NC4CCC(=O)NC4=O)cc3F)CC2)C(F)(F)C1 (single isomer, unassigned) [Compound 176, 3-[4-[4-[1-[[2,6-dimethoxy-4-(1,4,5-trimethyl-6-oxo-3-pyridyl)phenyl]methyl]-3,3-difluoro-4-piperidyl]piperazin-1-yl]-3-fluoro-anilino]piperidine-2,6-dione] | 771 (h*ng/mL)/(mg/kg) | 439 [ng/mL]/(mg/kg) | 21.6 | 6.7 | 4 | 656 (h*ng/mL)/(mg/kg) | 75 (ng/mL)/(mg/kg) | 83 | 5.1 | 8.6 | < 0.1 | > 30 | 67 | 30 | 1999 (h*ng/mL)/(mg/kg) | 346 (ng/mL)/(mg/kg) | 74 | 3.5 | 0.067 | 0.065 | confluence as a percentage of control, single dose long term growth evaluation (Yamato-SS cells; BAF perturbed Yamato-SS model, various concentrations, FIG. 16): selective growth inhibition; mean tumor volume+SEM ([3]; synovial sarcoma CDX model (Yamato SS), various concentrations, FIG. 21): efficacy; fraction unbound (PPB, mouse): 0.034; Stability (plasma) % remaining @3 hrs (Plasma stability, dog): 100%; tumor volume after treatment, Yamato-SS xenograft (Yamato-SS; treated as indicated, FIG. 21): strong effect
